Here are results for ten compounds from patent US20230295197A1, “STAT5 and STAT6 Degraders and Uses Thereof” (REGENTS OF THE UNIVERSITY OF MICHICAN, priority 2022, published 2023).

Like-named read-outs stand apart in the source and are kept apart here.

In the assay the target is T1, STAT6 (Homo sapiens, UniProt P42226).
T1 construct: endogenous in cells; host or cells: MOLM-16, KU-812, SKNO1, MB231, L1236
T1 sequence (P42226 1-847): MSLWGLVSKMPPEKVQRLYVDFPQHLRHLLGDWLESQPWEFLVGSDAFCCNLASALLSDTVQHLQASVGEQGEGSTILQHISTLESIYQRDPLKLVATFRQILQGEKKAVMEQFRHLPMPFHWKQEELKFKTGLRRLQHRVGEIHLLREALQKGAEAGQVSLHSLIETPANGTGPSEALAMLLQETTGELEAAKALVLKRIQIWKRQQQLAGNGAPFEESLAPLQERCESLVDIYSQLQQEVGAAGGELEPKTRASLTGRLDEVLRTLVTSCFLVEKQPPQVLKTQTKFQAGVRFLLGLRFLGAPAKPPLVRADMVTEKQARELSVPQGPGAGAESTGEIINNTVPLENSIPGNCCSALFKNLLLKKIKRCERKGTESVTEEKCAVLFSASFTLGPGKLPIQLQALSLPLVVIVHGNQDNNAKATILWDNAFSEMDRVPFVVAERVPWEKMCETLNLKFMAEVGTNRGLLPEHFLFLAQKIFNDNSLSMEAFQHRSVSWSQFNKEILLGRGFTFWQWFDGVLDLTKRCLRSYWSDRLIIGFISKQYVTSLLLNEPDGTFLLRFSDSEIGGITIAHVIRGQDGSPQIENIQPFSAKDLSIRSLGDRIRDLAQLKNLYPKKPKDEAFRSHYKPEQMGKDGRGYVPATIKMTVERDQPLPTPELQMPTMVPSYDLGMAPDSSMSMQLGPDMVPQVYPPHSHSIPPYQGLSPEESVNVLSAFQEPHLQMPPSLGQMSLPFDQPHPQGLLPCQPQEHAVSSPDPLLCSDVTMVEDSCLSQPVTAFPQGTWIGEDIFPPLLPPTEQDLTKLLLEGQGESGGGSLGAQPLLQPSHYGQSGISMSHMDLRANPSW
As to the kind of experiment: Immunoblotting (Western blot) analysis of STAT6 degradation efficiency of degraders in treated cells. The assay is classed as cell-based. The gist of the method:
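Treatment of cells with degraders at stated concentrations and exposure times comes first. Lysates are then equalised for total protein by BCA, and the proteins are separated, transferred and immunostained for STAT6 or STAT5 alongside GAPDH. Signal is quantified from infrared fluorescence.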

[1] abbreviates: MOLM-16 cells, class symbols, read-out: DC50 S6 MOLM-16.
[2] abbreviates: L1236 cells, read-out: DC50 S6 L1236.

Consider `CC(C)(C)[C@H](NC(=O)c1cc2cc(C(F)(F)P(=O)(O)O)ccc2s1)C(=O)N1CCN(C(=O)CC(=O)NCCC#Cc2cccc3c2C(=O)N(C2CCC(=O)NC2=O)C3=O)C[C@H]1C(=O)N1CCO[C@H](c2ccccc2)C1` (stereo partly drawn) [Compound 509, ((2-(((2S)-1-((2S)-4-(3-((4-(2-(2,6-dioxopiperidin-3-yl)-1,3-dioxoisoindolin-4-yl)but-3-yn-1-yl)amino)-3-oxopropanoyl)-2-((R)-2-phenylmorpholine-4-carbonyl)piperazin-1-yl)-3,3-dimethyl-1-oxobutan-2-yl)carbamoyl)benzo[b]thiophen-5-yl)difluoromethyl)phosphonic acid], for which the DC50 under setting [1] was greater than 10 µM.
Consider `Cc1ncsc1-c1ccc([C@H](C)NC(=O)[C@@H]2C[C@@H](O)CN2C(=O)[C@@H](NC(=O)CCCNC(=O)COc2ccc3c(c2)CN(C(=O)[C@@H](NC(=O)c2cc4cc(C(F)(F)P(=O)(O)O)ccc4s2)C(C)(C)C)[C@H](C(=O)N2CCC[C@H](c4ccccc4)C2)C3)C(C)(C)C)cc1` [Compound 472, (difluoro(2-(((S)-1-((S)-7-(2-((4-(((S)-1-((2S,4R)-4-hydroxy-2-(((S)-1-(4-(4-methylthiazol-5-yl)phenyl)ethyl)carbamoyl)pyrrolidin-1-yl)-3,3-dimethyl-1-oxobutan-2-yl)amino)-4-oxobutyl)amino)-2-oxoethoxy)-3-((R)-3-phenylpiperidine-1-carbonyl)-3,4-dihydroisoquinolin-2(1H)-yl)-3,3-dimethyl-1-oxobutan-2-yl)carbamoyl)benzo[b]thiophen-5-yl)methyl)phosphonic acid], for which the DC50 under setting [1] is greater than 10 µM.
On to `Cc1ncsc1-c1ccc([C@H](C)NC(=O)[C@@H]2C[C@@H](O)CN2C(=O)[C@@H](NC(=O)CCCCCCNC(=O)CC(=O)N2CCN(C(=O)[C@@H](NC(=O)c3cc4cc(C(F)(F)P(=O)(O)O)ccc4s3)C(C)(C)C)[C@H](C(=O)N3CCC[C@H](c4ccccc4)C3)C2)C(C)(C)C)cc1` [Compound 457, (difluoro(2-(((S)-1-((S)-4-(3-((7-(((S)-1-((2S,4R)-4-hydroxy-2-(((S)-1-(4-(4-methylthiazol-5-yl)phenyl)ethyl)carbamoyl)pyrrolidin-1-yl)-3,3-dimethyl-1-oxobutan-2-yl)amino)-7-oxoheptyl)amino)-3-oxopropanoyl)-2-((R)-3-phenylpiperidine-1-carbonyl)piperazin-1-yl)-3,3-dimethyl-1-oxobutan-2-yl)carbamoyl)benzo[b]thiophen-5-yl)methyl)phosphonic acid], for which the DC50 was greater than 10 µM under setting [2] and greater than 10 µM under setting [1].
Consider `Cc1ncsc1-c1ccc([C@H](C)NC(=O)[C@@H]2C[C@@H](O)CN2C(=O)[C@@H](NC(=O)CCCCCCCNC(=O)CO[C@H]2C[C@@H](C(=O)N3CCC[C@H](c4ccccc4)C3)N(C(=O)[C@@H](NC(=O)c3cc4cc(C(F)(F)P(=O)(O)O)ccc4s3)C(C)(C)C)C2)C(C)(C)C)cc1` [Compound 440, (difluoro(2-(((S)-1-((2S,4S)-4-(2-((8-(((S)-1-((2S,4R)-4-hydroxy-2-(((S)-1-(4-(4-methylthiazol-5-yl)phenyl)ethyl)carbamoyl)pyrrolidin-1-yl)-3,3-dimethyl-1-oxobutan-2-yl)amino)-8-oxooctyl)amino)-2-oxoethoxy)-2-((R)-3-phenylpiperidine-1-carbonyl)pyrrolidin-1-yl)-3,3-dimethyl-1-oxobutan-2-yl)carbamoyl)benzo[b]thiophen-5-yl)methyl)phosphonic acid], for which the DC50 reads like this: under setting [2], greater than 10 µM; under setting [1], greater than 10 µM.
With `CC(C)(C)[C@H](NC(=O)c1cc2cc(C(F)(F)P(=O)(O)O)ccc2s1)C(=O)N1Cc2cc(OCC(=O)NCC#Cc3ccc4c(c3)C(=O)N(C3CCC(=O)NC3=O)C4=O)ccc2C[C@H]1C(=O)N1CCO[C@H](c2ccccc2)C1` (stereo partly drawn) [Compound 536, ((2-(((2S)-1-((3S)-7-(2-((3-(2-(2,6-dioxopiperidin-3-yl)-1,3-dioxoisoindolin-5-yl)prop-2-yn-1-yl)amino)-2-oxoethoxy)-3-((R)-2-phenylmorpholine-4-carbonyl)-3,4-dihydroisoquinolin-2(1H)-yl)-3,3-dimethyl-1-oxobutan-2-yl)carbamoyl)benzo[b]thiophen-5-yl)difluoromethyl)phosphonic acid], the DC50 under setting [1] lay within 1 to 10 µM.
Turning to `CC(C)(C)[C@H](NC(=O)c1cc2cc(C(F)(F)P(=O)(O)O)ccc2s1)C(=O)N1CCN(C(=O)CC(=O)NCCC#Cc2ccc3c(c2)C(=O)N(C2CCC(=O)NC2=O)C3=O)C[C@H]1C(=O)N1CCO[C@H](c2ccccc2)C1` (stereo partly drawn) [Compound 510, ((2-(((2S)-1-((2S)-4-(3-((4-(2-(2,6-dioxopiperidin-3-yl)-1,3-dioxoisoindolin-5-yl)but-3-yn-1-yl)amino)-3-oxopropanoyl)-2-((R)-2-phenylmorpholine-4-carbonyl)piperazin-1-yl)-3,3-dimethyl-1-oxobutan-2-yl)carbamoyl)benzo[b]thiophen-5-yl)difluoromethyl)phosphonic acid], under setting [1], the DC50 is greater than 10 µM.
On to `CC(C)(C)[C@H](NC(=O)c1cc2cc(C(F)(F)P(=O)(O)O)ccc2s1)C(=O)N1Cc2cc(OCC(=O)NCCCCCC#Cc3ccc4c(c3)C(=O)N(C3CCC(=O)NC3=O)C4=O)ccc2C[C@H]1C(=O)N1CCC[C@H](c2ccccc2)C1` (stereo partly drawn) [Compound 558, ((2-(((2S)-1-((3S)-7-(2-((7-(2-(2,6-dioxopiperidin-3-yl)-1,3-dioxoisoindolin-5-yl)hept-6-yn-1-yl)amino)-2-oxoethoxy)-3-((R)-3-phenylpiperidine-1-carbonyl)-3,4-dihydroisoquinolin-2(1H)-yl)-3,3-dimethyl-1-oxobutan-2-yl)carbamoyl)benzo[b]thiophen-5-yl)difluoromethyl)phosphonic acid], for which the DC50 under setting [1] is greater than 10 µM.
Turning to `Cc1ncsc1-c1ccc([C@H](C)NC(=O)[C@@H]2C[C@@H](O)CN2C(=O)[C@@H](NC(=O)CCCCCCCNC(=O)COc2ccc3c(c2)CN(C(=O)[C@@H](NC(=O)c2cc4cc(C(F)(F)P(=O)(O)O)ccc4s2)C(C)(C)C)[C@H](C(=O)N2CCC[C@H](c4ccccc4)C2)C3)C(C)(C)C)cc1` [Compound 476, (difluoro(2-(((S)-1-((S)-7-(2-((8-(((S)-1-((2S,4R)-4-hydroxy-2-(((S)-1-(4-(4-methylthiazol-5-yl)phenyl)ethyl)carbamoyl)pyrrolidin-1-yl)-3,3-dimethyl-1-oxobutan-2-yl)amino)-8-oxooctyl)amino)-2-oxoethoxy)-3-((R)-3-phenylpiperidine-1-carbonyl)-3,4-dihydroisoquinolin-2(1H)-yl)-3,3-dimethyl-1-oxobutan-2-yl)carbamoyl)benzo[b]thiophen-5-yl)methyl)phosphonic acid], under setting [1], the DC50 is greater than 10 µM.
On the same count and under the same terms, under `Cc1ncsc1-c1ccc([C@H](C)NC(=O)[C@@H]2C[C@@H](O)CN2C(=O)[C@@H](NC(=O)CCCCNC(=O)COc2ccc3c(c2)CN(C(=O)[C@@H](NC(=O)c2cc4cc(C(F)(F)P(=O)(O)O)ccc4s2)C(C)(C)C)[C@H](C(=O)N2CCC[C@H](c4ccccc4)C2)C3)C(C)(C)C)cc1` [Compound 473, (difluoro(2-(((S)-1-((S)-7-(2-((5-(((S)-1-((2S,4R)-4-hydroxy-2-(((S)-1-(4-(4-methylthiazol-5-yl)phenyl)ethyl)carbamoyl)pyrrolidin-1-yl)-3,3-dimethyl-1-oxobutan-2-yl)amino)-5-oxopentyl)amino)-2-oxoethoxy)-3-((R)-3-phenylpiperidine-1-carbonyl)-3,4-dihydroisoquinolin-2(1H)-yl)-3,3-dimethyl-1-oxobutan-2-yl)carbamoyl)benzo[b]thiophen-5-yl)methyl)phosphonic acid] stands greater than 10 µM.
As for `Cc1ncsc1-c1ccc([C@H](C)NC(=O)[C@@H]2C[C@@H](O)CN2C(=O)[C@@H](NC(=O)CCNC(=O)CC(=O)N2CCN(C(=O)[C@@H](NC(=O)c3cc4cc(C(F)(F)P(=O)(O)O)ccc4s3)C(C)(C)C)[C@H](C(=O)N3CCO[C@H](c4ccccc4)C3)C2)C(C)(C)C)cc1` [Compound 444, (difluoro(2-(((S)-1-((S)-4-(3-((3-(((S)-1-((2S,4R)-4-hydroxy-2-(((S)-1-(4-(4-methylthiazol-5-yl)phenyl)ethyl)carbamoyl)pyrrolidin-1-yl)-3,3-dimethyl-1-oxobutan-2-yl)amino)-3-oxopropyl)amino)-3-oxopropanoyl)-2-((R)-2-phenylmorpholine-4-carbonyl)piperazin-1-yl)-3,3-dimethyl-1-oxobutan-2-yl)carbamoyl)benzo[b]thiophen-5-yl)methyl)phosphonic acid], the DC50 is greater than 10 µM under setting [2] and greater than 10 µM under setting [1].

In general, DC50 refers to the midpoint of the concentration-degradation curve.
